The values that follow come from PubChem BioAssay (NCI).

Common to all, as to experiment: DTP human tumour cell line panel, 48 h
Experiment [1] has as its system IGROV1 ovarian.
The subject of experiment [2] is K-562 leukemia.
The subject of experiment [3] is KM12 colon.
Experiment [4] relates to NCI-H23 lung.
The test system of experiment [5] is SK-MEL-2 melanoma.
Experiment [6] concerns SK-OV-3 ovarian.
Experiment [7] deals with SN12C renal.

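Step 1: Grow cells in 96-well plates. Step 2: Expose to compound for 48 hours at 5 concentrations. Step 3: Interpolate endpoints linearly; if unreached, use highest concentration. The concentration for full growth arrest is given as TGI.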

For orientation: TGI means the concentration at which net growth stops.

As to `N#CCN1C(=O)c2cc([N+](=O)[O-])cc3cc([N+](=O)[O-])cc(c23)C1=O`, the TGI in experiment [1] is 18.3 µM; in experiment [2], 33.4 µM; in experiment [3], 28 µM; in experiment [4], 32.9 µM; in experiment [5], 14.1 µM; in experiment [6], over 100 µM. This compound came in with a TGI in experiment [7] of 27.9 µM.

Turning to `CC(=O)/C(=C\c1ccccc1O)C(=O)Nc1ccccc1C`, the concentration for total growth inhibition (TGI) in experiment [1] is 79 µM; in experiment [2], over 100 µM; in experiment [3] it was 41.5 µM; in experiment [4] it was 37.2 µM; in experiment [5], 46.9 µM; in experiment [6], over 100 µM.

Regarding `NC1=NC(=O)C(CC(=O)Nc2ccc(Cl)cc2Cl)S1` (configuration not stated), the TGI in experiment [1], in experiment [2], in experiment [3], in experiment [4], in experiment [5] and in experiment [6] was over 100 µM in each case. This compound showed a TGI in experiment [7] of over 100 µM.

In the case of `O=C1OC(=O)c2c1c(-c1ccccc1)nc1ccccc21`, the TGI in experiment [1], in experiment [2], in experiment [3], in experiment [4], in experiment [5] and in experiment [6] was over 100 µM each time. Further, in experiment [7], the TGI was over 100 µM.

As to `O=C(NCCNCCO)c1cccc2ccc(-c3ccccc3)nc12`, the TGI in experiment [1] was 13.2 µM; in experiment [2] it was over 100 µM; in experiment [3], 18.3 µM; in experiment [4], 15.3 µM; in experiment [5] it was 20.2 µM; in experiment [6], 27.7 µM. In experiment [7], this compound yielded a TGI of 17.6 µM.

For the compound `O=Cc1ccc2c(c1I)OCO2`, the concentration for total growth inhibition (TGI) in experiment [1], in experiment [2], in experiment [3], in experiment [4], in experiment [5] and in experiment [6] was over 100 µM in each case. This compound returned a TGI in experiment [7] of over 100 µM.

As for `ClC1=C(Cl)C(Cl)(Cl)c2c3c(c4c(c21)C(Cl)(Cl)C(Cl)=C4Cl)C(Cl)(Cl)C(Cl)=C3Cl`, the TGI in experiment [1], in experiment [2], in experiment [3], in experiment [4], in experiment [6] and in experiment [7] was over 100 µM throughout.

For `COc1ccc(-c2cc(=O)c3c(O)cccc3o2)c(OC)c1OC`, the total growth inhibition concentration (TGI) in experiment [1], in experiment [2], in experiment [3], in experiment [4], in experiment [5] and in experiment [6] was over 100 µM throughout. In experiment [7], this compound yielded a TGI of over 100 µM.

For `CC(C)(C)c1cc2nc(c1)C(C(F)(F)F)(C(F)(F)F)OB(Br)OC2(C(F)(F)F)C(F)(F)F`, the TGI in experiment [1] was determined as 8.83 µM; in experiment [2], 10 µM; in experiment [3], 11.3 µM; in experiment [4] it was 17.2 µM; in experiment [5] it was 11.2 µM; in experiment [6], 10.7 µM. In addition, in experiment [7], the TGI is 7.26 µM.

Take `O=C(O)CCNS(=O)(=O)c1ccc([N+](=O)[O-])cc1`: the TGI in experiment [1], in experiment [2], in experiment [3], in experiment [4], in experiment [5] and in experiment [6] was over 100 µM each time. This compound also registered a TGI in experiment [7] of over 100 µM.

For `COc1cc(C2(C)SCCCS2)cc(OC)c1OC`, the TGI in experiment [1], in experiment [2], in experiment [3], in experiment [4], in experiment [5] and in experiment [6] was over 100 µM throughout. The TGI in experiment [7] is over 100 µM.

On to `COC(=O)C(C(=O)C(=O)Nc1ccc([N+](=O)[O-])cc1)c1nc2ccc([N+](=O)[O-])cc2[nH]c1=O` (configuration not stated), for which the TGI in experiment [1], in experiment [2], in experiment [3], in experiment [4], in experiment [5] and in experiment [6] was over 100 µM in each case. Also, the TGI in experiment [7] was over 100 µM.

Turning to `Cc1cccc(NC(=O)/C(=N\N)C(c2cnc3ccc([N+](=O)[O-])cc3n2)[N+](=O)[O-])c1C` (configuration not stated), the TGI in experiment [1], in experiment [3], in experiment [4], in experiment [5], in experiment [6] and in experiment [7] was over 100 µM in each case.

For the compound `Cc1cc2c(c(C(N)=O)c1C)-c1cc(Cl)cc(Cl)c1C2=O`, the TGI in experiment [1], in experiment [2], in experiment [3], in experiment [4], in experiment [5] and in experiment [6] was over 100 µM in each case. In experiment [7], this compound yielded a TGI of over 100 µM.

On to `Cc1ccccc1-n1c(N)c(-c2nc3ccccc3[nH]2)sc1=S`, for which the TGI in experiment [1] was 57 µM; in experiment [2] it was over 100 µM; in experiment [3], 39.9 µM; in experiment [4], 45.4 µM; in experiment [5] it was 48.3 µM; in experiment [6], 72.6 µM. This compound showed a TGI in experiment [7] of 56.9 µM.

In the case of `CCOC(=O)C1Nc2ccccc2[C@H]2OCC[C@@H]12` (some centres not stated), the TGI in experiment [1], in experiment [2], in experiment [3], in experiment [4], in experiment [5] and in experiment [6] was over 100 µM in each case. This compound also had a TGI in experiment [7] of over 100 µM.

`CCCC(S(=O)(=O)c1ccccc1)S(=O)(=O)c1ccccc1`: the TGI in experiment [1], in experiment [2], in experiment [3], in experiment [4], in experiment [5] and in experiment [6] was over 100 µM each time.

In the case of `O=C(/C=C/c1ccc(Cl)c(Cl)c1)c1cccc2ccccc12`, the TGI in experiment [1] was found to be 24.8 µM; in experiment [2], 11.2 µM; in experiment [3], 16.3 µM; in experiment [4], 22.5 µM; in experiment [6], 35.2 µM; in experiment [7], 31.8 µM.

As for `CC1=C(CC2C(=O)N(c3ccccc3)S(=O)(=O)NC2C)C(=O)N(c2ccccc2)S(=O)(=O)N1C` (configuration not stated), the TGI in experiment [1], in experiment [2], in experiment [3], in experiment [4], in experiment [5] and in experiment [6] was over 100 µM throughout. Also, the TGI in experiment [7] was over 100 µM.

In the case of `COc1ccc(OC(=O)CC2Cc3cc(OC)c(OC)c(OC)c3-c3ccc(SC)c(=O)cc32)cc1` (configuration not stated), the TGI in experiment [1] is over 100 µM; in experiment [2], over 100 µM; in experiment [3], 19.6 µM; in experiment [4] it was 14.9 µM; in experiment [5] it was 59 µM; in experiment [6] it was 61.4 µM. Moreover, the TGI in experiment [7] was over 71.8 µM.

For `CCOC(=O)/C(I)=C/c1cc(OC)c(OC)c(OC)c1`, the TGI in experiment [1] was 93.7 µM; in experiment [2], over 100 µM; in experiment [3] it was 19.2 µM; in experiment [4], 14.1 µM; in experiment [5], over 100 µM; in experiment [6] it was over 100 µM. Moreover, the TGI in experiment [7] amounted to 24.6 µM.

With `N[C@H](COCc1ccccc1)c1ccccc1`, the TGI in experiment [1] was over 100 µM; in experiment [2] it was 87.2 µM; in experiment [3], over 100 µM; in experiment [4], 57.5 µM; in experiment [5], 49.8 µM; in experiment [6], over 100 µM. In addition, the TGI in experiment [7] was over 81.6 µM.

As to `CC1=NN(c2ccccc2)C(=O)/C1=C\c1ccc([N+](=O)[O-])cc1`, the TGI was found to be 83.3 µM in experiment [1]; 81.4 µM in experiment [2]; 64.3 µM in experiment [3]; 91 µM in experiment [4]; 56 µM in experiment [5]; 58.7 µM in experiment [6]. Moreover, the TGI in experiment [7] is over 100 µM.

Regarding `CC1=C(C(=O)Nc2ccc(Cl)c(Cl)c2)C(c2ccc([N+](=O)[O-])cc2)C(C(=O)Nc2ccc(Cl)c(Cl)c2)=C(C)N1`, the TGI in experiment [1] stood at 14.8 µM; in experiment [3] it was 3.63 µM; in experiment [4], 5.98 µM; in experiment [5], 4.79 µM; in experiment [6] it was 24.8 µM; in experiment [7], 7.3 µM.

As to `N#CC1(C#N)C(c2ccccc2)C=CC12OCCCO2` (configuration not stated), the TGI in experiment [1] was over 100 µM; in experiment [2], over 100 µM; in experiment [3] it was over 100 µM; in experiment [4], 91.4 µM; in experiment [5] it was over 100 µM; in experiment [6], over 100 µM. The compound also came in with a TGI in experiment [7] of over 100 µM.

Regarding `O=C(Cc1nc2ccccc2o1)C(=O)Nc1cccc(C(F)(F)F)c1`, the concentration for total growth inhibition (TGI) in experiment [1], in experiment [2], in experiment [3], in experiment [4], in experiment [5] and in experiment [6] was over 100 µM throughout. This compound displayed a TGI in experiment [7] of over 100 µM.

Regarding `N#CNc1nc(N)c(-c2ccc(Cl)cc2)c(C(=O)Nc2nccs2)n1`, the TGI in experiment [1], in experiment [2], in experiment [3], in experiment [4], in experiment [5] and in experiment [7] was over 100 µM in each case.
